The assay relates to 5T33 multiple myeloma cells. As to the kind of experiment: In vivo experiment of multiple myeloma. As to conditions: 5T33 myeloma mice, subcutaneous. The procedure: Thirty 6-week-old mice are divided into three groups, which are administrated with free bendamustine (Group I), PEG-Py-HP-bendamustine (Group II) and PEG-Mal-HP-bendamustine (Group III) respectively. Male and female animals in each group are halved, and there is no statistically significant difference in body weight among animals in each group. The dosage of free bendamustine group is 0.1 ml/kg body weight/day, and that of PEG-Py-HP-bendamustine group and PEG-Mal-HP-bendamustine group is 20 mg/kg (body weight/day).
One week after injection of 1,000,000 5T33 multiple myeloma cells into the tail veins of mice, drugs are administered subcutaneously according to the above scheme, for three times a week. During the administration period, the animals are weighed every day, and the dosage on that day is determined according to the weight, and the animals are continuously administered until the death of the mice. The venous blood of mice is collected and stored every week, and the time of death of mice is recorded.

The text below walks through data of patent US20220280516A1, “PEGYLATED HEPARIN NANOMICELLE LOADED WITH CARBOXYLIC ACID ANTI-TUMOR DRUG AND PREPARATION METHOD THEREOF” (priority 2020, published 2022).

With `Cn1c(CCCC(=O)O)nc2cc(N(CCCl)CCCl)ccc21` [free bendamustine, Bendamustine], the “Average survival days of mice after drug injection” value (three times a week until death) was determined as 36 days. Further, the “Average tumor load in serum of mice after drug injection” value reads like this: (1 day) 132.2 µg/mL; (8 days) 201.5 µg/mL; (15 days) 321.2 µg/mL; (22 days) 608.4 µg/mL; (29 days) 873.3 µg/mL; (36 days) 946.8 µg/mL.
